Patent US9932332B2, “FXR (NR1H4) modulating compounds” (Gilead Sciences, Inc., priority 2016, dated 2018)

Biological target: FXR ligand binding domain (Homo sapiens (Human), UniProt Q96RI1)
Experiment: Mammalian one hybrid (M1H) Gal4 reporter gene assay in HEK293 cells
Assay type: cell-based
Conditions: Gal4-FXR-LBD luciferase reporter, 16 h incubation
Method: Determination of a ligand mediated Gal4 promoter driven transactivation to quantify ligand binding mediated activation of FXR was performed as follows: The cDNA part encoding the FXR ligand binding domain was cloned into vector pCMV-BD (Stratagene) as a fusion to the yeast GAL4 DNA binding domain under the control of the CMV promoter. The amino acid boundaries of the ligand binding domain were amino acids 187-472 of Database entry NM_005123 (RefSeq). The plasmid pFR-Luc (Stratagene) was used as the reporter plasmid, containing a synthetic promoter with five tandem repeats of the yeast GAL4 binding sites, driving the expression of the Photinus pyralis (American firefly) luciferase gene as the reporter gene. In order to improve experimental accuracy the plasmid pRL-CMV (Promega) was cotransfected. pRL-CMV contains the constitutive CMV promoter, controlling the expression of the Renilla reniformis luciferase. […] Cells were incubated for additional 16 h before firefly and renilla luciferase activities were measured sequentially in the same cell extract using a Dual-Light-Luciferase-Assay system (Dyer et al., Anal. Biochem. 2000, 282, 158-161). […]

Sequence of FXR ligand binding domain (Q96RI1 other isoform, or with tags, fused parts or gaps): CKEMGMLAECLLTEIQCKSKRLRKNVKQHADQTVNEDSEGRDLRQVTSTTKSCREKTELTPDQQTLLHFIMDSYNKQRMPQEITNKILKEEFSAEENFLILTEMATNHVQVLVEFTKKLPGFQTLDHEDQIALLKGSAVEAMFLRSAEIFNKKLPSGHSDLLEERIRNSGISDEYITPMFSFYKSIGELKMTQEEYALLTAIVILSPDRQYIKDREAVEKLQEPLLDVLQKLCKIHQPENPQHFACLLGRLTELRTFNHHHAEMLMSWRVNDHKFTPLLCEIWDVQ

EC50	Compound
216 nM	O=C(O)c1cc(F)c2nc(C3(O)C4COCC3CC(OCc3c(-c5c(Cl)cccc5Cl)noc3C3CC3)C4)sc2c1 [Example 1, 2-((1R,5S,9S)-7-((5-Cyclopropyl-3-(2,6-dichlorophenyl)isoxazol-4-yl)methoxy)-9-hydroxy-3-oxabicyclo[3.3.1]nonan-9-yl)-4-fluorobenzo[d]thiazole-6-carboxylic acid]
175 nM	O=C(O)c1ccc2nc(C3(O)C4COCC3CC(OCc3c(-c5c(Cl)cccc5Cl)noc3C3CC3)C4)sc2c1 [Example 2, 2-((1R,5S,9S)-7-((5-Cyclopropyl-3-(2,6-dichlorophenyl)isoxazol-4-yl)methoxy)-9-hydroxy-3-oxabicyclo[3.3.1]nonan-9-yl)benzo[d]thiazole-6-carboxylic acid]
